Results taken from US20230158151A1 (NURIX THERAPEUTICS, INC., priority 2021, published 2023).

Molecular target: T1, ITK (Mus musculus, UniProt Q03526)
T1 construct: administered to mice orally; from tissue; host or cells: mouse splenocytes (spleen) after oral dosing
T1 sequence (Q03526 1-625): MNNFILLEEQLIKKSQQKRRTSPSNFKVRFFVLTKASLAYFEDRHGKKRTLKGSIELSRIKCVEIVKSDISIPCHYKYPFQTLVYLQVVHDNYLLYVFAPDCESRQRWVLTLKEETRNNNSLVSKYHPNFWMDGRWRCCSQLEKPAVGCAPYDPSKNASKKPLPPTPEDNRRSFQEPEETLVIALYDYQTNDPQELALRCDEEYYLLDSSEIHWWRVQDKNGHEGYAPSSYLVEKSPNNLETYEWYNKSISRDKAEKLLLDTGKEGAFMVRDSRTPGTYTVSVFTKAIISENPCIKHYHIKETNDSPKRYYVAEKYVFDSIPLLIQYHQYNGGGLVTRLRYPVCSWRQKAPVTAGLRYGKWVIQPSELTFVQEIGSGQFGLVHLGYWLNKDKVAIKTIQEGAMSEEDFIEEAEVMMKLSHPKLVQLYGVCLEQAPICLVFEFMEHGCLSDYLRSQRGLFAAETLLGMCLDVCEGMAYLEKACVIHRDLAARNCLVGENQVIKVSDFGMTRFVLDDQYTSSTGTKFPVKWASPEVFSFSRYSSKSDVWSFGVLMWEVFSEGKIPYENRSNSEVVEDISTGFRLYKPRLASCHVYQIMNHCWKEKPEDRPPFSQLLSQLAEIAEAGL
Assay: Western Assay for ITK Degradation in Mouse Splenocytes after oral administration
Format: in vivo
Settings: % ITK remaining in mouse splenocytes
Method: Compounds 30 and 31 were administered to mice orally. After 6 hours, splenocytes cells were harvested. ITK was evaluated by Western blotting. Media was removed and cell pellets were lysed in 100 μL lysis buffer (RIPA buffer (Fisher, PI89901), cOmplete Mini EDTA-free protease inhibitor (Sigma 11836170001), Protease Inhibitor Cocktail (Sigma, P2714), Phosphatase Inhibitor Cocktail 2 and 3 (Sigma, P5726 and P0044), Benzonase (Sigma, E1014)). Cells were lysed overnight at −20° C. Following thaw, cells were centrifuged for 10 min at 13000 rpm, then transferred to new tube. Protein levels were determined by BCA Assay performed according to manufacturer's protocol (EMD Millipore, cat. no. 71285-3). Samples were combined with (4×) LDS Sample Buffer and (10×) Reducing Agent and H2O to equally load 20 μg protein per lane of a 26-well NuPAGE 4-12% Bis-Tris protein gel (1.0 mm, Thermo cat. no. NP0326). Samples were separated by running gels at constant 150 V in NuPAGE MES SDS Running Buffer. Following electrophoresis, proteins were transferred to nitrocellulose membranes using an iBlot Gel Transfer Device and iBlot Gel Transfer Stacks (Thermo cat. no. IB21001 and IB301001) and transfer method P3 (20V for 7 min). Membranes were blocked for 1 hr in 5% milk solution (TBS (0.2% Tween-20)). Following blocking, membranes were incubated with primary antibody (1:1000 CST ITK (2F12) #2380) overnight at 4° C. with gentle shaking. Blots were washed 2× in TBS (0.2% Tween-20), 30 min per wash. Following washes, blots were incubated in secondary HRP-conjugated antibody (Promega anti-Mouse IgG (H+L) HRP cat. no. W4021), 1:5000 in 5% milk solution (TBS (0.2% Tween-20)), for 1 hr at room temperature with gentle shaking. Blots were washed 2× in TBS (0.2% Tween-20), 30 min per wash. Blots were incubated with 1:1 mix of ECL reagents 1 & 2 (Amersham ECL Western Blotting Detection Reagent, cat. no. RPN2106) for 2 min at room temperature. Bands were visualized using a Protein Simple imager. Blots were then re-probed with a combination of anti-actin antibody (Sigma Monoclonal Mouse Anti-β-Actin (clone AC-15), cat. no. A5441) and secondary HRP-conjugated antibody (Promega anti-Mouse IgG (H+L) HRP, cat. no. W4021) and similar steps were taken for incubation, wash, detection and visualization steps as above. The data was analyzed using Alpha View software. The densitometric reading for each sample band was normalized to that of the corresponding actin band per lane. Approximate % ITK remaining per sample was calculated as follows: […]
Once % ITK remaining has been calculated for each sample, groups are averaged together to show an means % ITK normalized to actin and relative to control.
Compounds 30 and 29 were administered to mice orally. After 6 hours or 24 hours, splenocytes cells were harvested. ITK was evaluated by Western blotting. Plasma concentrations were determined by LC/MS/MS. Plasma samples were protein precipitated by addition of 100 μl of acetonitrile containing 50 ng/ml of internal standard. The resulting mixture was vortexed and centrifuged at 4000 RPM for 5 minutes. An aliquot of the resultant supernatant (75 μl) was added to 75 μl of 0.1% formic acid in water to constitute the final sample for injection. Samples were injected on a Shimadzu Exion LC Binary Gradient AD Pump HLPC system connected to a Sciex QTRAP 6500+ mass spectrometer. Five μl of sample was injected onto a Waters Acquity UPLC BEH C18 column 130A (2.1×30 mm, […]) at 40° C. utilizing a flow rate of 700 μl/minute. Mobile Phase A was 0.1% formic acid in water and mobile phase B was 0.1% formic acid in acetonitrile. A linear gradient of 15-95% B over 1.0 minute was used. The mass spectrometer was operated in positive ion electrospray mode with multiple reaction monitoring for maximum sensitivity. Sciex Analyst software (version 1.6.3) was used for LC/MS/MS instrument control and acquisition. […]

ITK (%) 90 mpk PO, 6 h (90 mpk PO, 6 h) [%] | ITK (%) 90 mpk PO, 24 h (90 mpk PO, 24 h) [%] | ITK (%) 60 mpk PO, 24 h (60 mpk PO, 24 h) [%] | SMILES
14 | 14 | – | CC1(C)CCc2c(-c3cc4ccc(C(=O)N5CCN(CC6CCN(c7ccc(C8CCC(=O)NC8=O)cc7)CC6)CC5)cc4[nH]3)n[nH]c2C1 (stereo not drawn) [Compound 38, 3-(4-(4-((4-(2-(6,6-dimethyl-4,5,6,7-tetrahydro-1H-indazol-3-yl)-1H-indole-6-carbonyl)piperazin-1-yl)methyl)piperidin-1-yl)phenyl)piperidine-2,6-dione]
– | – | 93 | CC1(C)CCc2c(-c3cc4ccc(C(=O)N5CCC(CN6CCC(c7ccc(C8CCC(=O)NC8=O)cc7)CC6)CC5)cc4[nH]3)n[nH]c2C1 (stereo not drawn) [Compound 39, 3-(4-(1-((1-(2-(6,6-dimethyl-4,5,6,7-tetrahydro-1H-indazol-3-yl)-1H-indole-6-carbonyl)piperidin-4-yl)methyl)piperidin-4-yl)phenyl)piperidine-2,6-dione]
